Here are results for twelve compounds from patent publication EP4389751A1, “HETEROCYCLIC COMPOUNDS AND USES THEREOF” (Kumquat Biosciences Inc., priority 2021, dated 2024).

The structures appear in SMILES notation. Like-named read-outs stand apart in the source and are kept apart here.

Assay [1] deals with T1, KRAS protein (His-tagged GDP-loaded G12S 1-169) (Homo sapiens, UniProt P01116, G12S).
T1 construct: His-tagged GDP-loaded G12S 1-169
Put plainly: Covalent modification of KRAS protein, intact-protein LC-MS. It is filed as binding. Conditions: for % G12S Modification at 24 hr.: 24hrs at room temperature, KRAS protein ~2 µM; for K-Ras12S engagement after 24-hour treatment: compound pairs differ only at R^6 (warhead). In outline:
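Percent covalent modification derives from deconvoluted intact-mass intensities of compound-adducted versus unmodified KRAS, measured by LC-ESI-MS. Before analysis, ~2 µM GDP-loaded His-KRAS 1-169 was exposed to compound for 24 h at room temperature and acidified with formic acid.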

The test system of a further assay is GP2D cells. Put plainly: Cell proliferation assay (CellTiter-Glo), K-Ras G12D cells. It is filed as cell-based. The note with it: read-out: Inhibition of GP2D Cells (IC50). In outline: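 CellTiter-Glo luminescence, taken roughly 5 days after dosing, measured growth of G12D-mutant GP2D cells in DMEM/2 mM glutamine/10% FBS. Compound dilution series (e.g., 9 points, 3-fold) added the day after plating. Four-parameter fitting gave IC50.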

The next assay concerns A549 cells. Put plainly: Cell proliferation assay (CellTiter-Glo), K-Ras G12S cells. It is filed as cell-based. The note with it: for IC50: Homo sapiens; for ratio of IC50 against a G12D cell line to IC50 against a G12S cell line: K-Ras G12D cell line such as GP2D relative to K-Ras G12S cell line such as A549, greater than 1, 2, 3, 4, 5, 10, 15 or even greater, 8640 min. In outline: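 A549 cells (K-Ras G12S) in RPMI-1640 with 10% FBS, seeded in standard or ultra-low-attachment plates and dosed next day with a 10-point 3-fold series. Viability read about 6 days later by CellTiter-Glo luminescence. IC50 from four-parameter fit.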
In general terms: In ATP-based viability assays light output follows the ATP content of the culture.

[2] abbreviates: A549, A549 cells (K-Ras G12S), bin ≤ 500 nM, read-out: Inhibition of A549 Cells (IC50).
[3] abbreviates: A549, A549 cells (K-Ras G12S), bin 500 nM to 5 µM, read-out: Inhibition of A549 Cells (IC50).

Usually IC50 stands for the concentration that inhibits the measured activity by half. For the compound `Cc1ncn(C(=O)N2CC3(CCCN(c4nc(OC[C@@]56CCCN5C[C@H](F)C6)nc5c(F)c(-c6ccc(F)c7sc(N)c(C#N)c67)c(Cl)cc45)C3)C2)n1` [Compound A102, 2-amino-4-(6-chloro-8-fluoro-2-(((2R,7aS)-2-fluorotetrahydro-1H-pyrrolizin-7 a(5H)-yl)methoxy)-4-(2-(3-methyl-1H-1,2,4-triazole-1-carbonyl)-2,6-diazaspiro[3.5]nonan-6-yl)quinazolin-7-yl)-7-fluorobenzo[b]thiophene-3-carbonitrile], the “% G12S Modification at 24 hr.” value in assay [1] is given as “+++ (+++ indicates greater than 20% labelling)”. Moreover, the IC50 was 1000 to 10000 nM in the assay on GP2D cells (GP2D cells (K-Ras G12D)) and no more than 500 nM in the assay on A549 cells (setting [2]). In the assay with A549 cells, the “ratio of IC50 against a G12D cell line to IC50 against a G12S cell line” value (from here on “ratio of IC50 against a G12D cell line”) is “greater than 1”.

For the compound `N#CCc1ncn(C(=O)N2CC3(C2)CN(c2nc(OC[C@@]45CCCN4C[C@H](F)C5)nc4c(F)c(-c5ccc(F)c6sc(N)c(C#N)c56)c(Cl)cc24)CCO3)n1` [Compound A110, 2-amino-4-(6-chloro-4-(2-(3-(cyanomethyl)-1H-1,2,4-triazole-1-carbonyl)-5-oxa-2,8-diazaspiro[3.5]nonan-8-yl)-8-fluoro-2-(((2R,7aS)-2-fluorotetrahydro-1H-pyrrolizin-7a(5H)-yl)methoxy)quinazolin-7-yl)-7-fluorobenzo[b]thiophene-3-carbonitrile], in assay [1], the “K-Ras12S engagement after 24-hour treatment” value (shortened to “K-Ras12S engagement”) is on record as “+++ (+++: indicates equal to or greater than 20% labelling)” and the “% G12S Modification at 24 hr.” value is given as “+++ (+++ indicates greater than 20% labelling)”. Besides, the half-maximal inhibitory concentration (IC50) in the assay with GP2D cells (GP2D cells (K-Ras G12D)) lay within 1000 to 10000 nM. The IC50 with A549 cells (setting [2]) was no more than 500 nM. In addition, in the assay with A549 cells, the “ratio of IC50 against a G12D cell line” value is given as “greater than 1”.

On to `COCCN1CCC(Oc2nc(N3CCCCC4(CN(C(=O)n5cncn5)C4)C3)c3cc(Cl)c(-c4ccc(F)c5sc(N)c(C#N)c45)c(F)c3n2)CC1` [Compound A119, 4-(4-(2-(1H-1,2,4-triazole-1-carbonyl)-2,6-diazaspiro[3.6]decan-6-yl)-6-chloro-8-fluoro-2-((1-(2-methoxyethyl)piperidin-4-yl)oxy)quinazolin-7-yl)-2-amino-7-fluorobenzo[b]thiophene-3-carbonitrile], for which the “% G12S Modification at 24 hr.” value in assay [1] was “+++ (+++ indicates greater than 20% labelling)”. The concentration for half-maximal inhibition (IC50) was 1000 to 10000 nM in the assay on GP2D cells (GP2D cells (K-Ras G12D)) and 500 to 5000 nM in the assay on A549 cells (setting [3]).

As for `N#Cc1cn(C(=O)N2C3CCC2CN(c2nc(OC[C@@]45CCCN4C[C@H](F)C5)nc4c(F)c(-c5ccc(F)c6sc(N)nc56)c(Cl)cc24)C3)cn1` [Compound A123, 1-(3-(7-(2-amino-7-fluorobenzo[d]thiazol-4-yl)-6-chloro-8-fluoro-2-(((2R,7aS)-2-fluorotetrahydro-1H-pyrrolizin-7a(5H)-yl)methoxy)quinazolin-4-yl)-3,8-diazabicyclo[3.2. 1]octane-8-carbonyl)-1H-imidazole-4-carbonitrile], in assay [1], the “K-Ras12S engagement” value is given as “++ (++: indicates between 1% to 20% labelling)” and the “% G12S Modification at 24 hr.” value is recorded as “++ (++ indicates between about 1%- 20% labelling)”. In addition, the half-inhibitory concentration (IC50) with GP2D cells (GP2d) is no more than 1000 nM. For the same compound, the IC50 with A549 cells (A549, read-out: Inhibition of A549 Cells (IC50)) was in the range of 500 to 5000 nM.

For the compound `N#Cc1c(N)sc2c(F)ccc(-c3c(Cl)cc4c(N5CCCC6(CN(C(=O)n7cncn7)C6)C5)nc(OC[C@@]56CCCN5C[C@H](F)C6)nc4c3F)c12` [Compound A129, 4-(4-(2-(1H-1,2,4-triazole-1-carbonyl)-2,6-diazaspiro[3.5]nonan-6-yl)-6-chloro-8-fluoro-2-(((2R,7aS)-2-fluorotetrahydro-1H-pyrrolizin-7a(5H)-yl)methoxy)quinazolin-7-yl)-2-amino-7-fluorobenzo[b]thiophene-3-carbonitrile], in assay [1], the “% G12S Modification at 24 hr.” value is recorded as “+++ (+++ indicates greater than 20% labelling)”. The figures for the half-inhibitory concentration (IC50) in the assay on GP2D cells (GP2D cells (K-Ras G12D)) and with A549 cells (setting [2]) were 1000 to 10000 nM and no more than 500 nM, respectively.

For `N#Cc1c(N)sc2c(F)ccc(-c3ncc4c(N5CCCC6(CN(C(=O)n7cncn7)C6)C5)nc(OC[C@@]56CCCN5C[C@H](F)C6)nc4c3F)c12` [Compound A134, 4-(4-(2-(1H-1,2,4-triazole-1-carbonyl)-2,6-diazaspiro[3.5]nonan-6-yl)-8-fluoro-2-(((2R,7aS)-2-fluorotetrahydro-1H-pyrrolizin-7a(5H)-yl)methoxy)pyrido[4,3-d]pyrimidin-7-yl)-2-amino-7-fluorobenzo[b]thiophene-3-carbonitrile], in assay [1], the “% G12S Modification at 24 hr.” value is on record as “+++ (+++ indicates greater than 20% labelling)”. Moreover, the IC50 in the assay with GP2D cells (GP2D cells (K-Ras G12D)) was in the range of 1000 to 10000 nM; in the assay on A549 cells (setting [3]) it was 500 to 5000 nM.

In the case of `Nc1nc2c(-c3c(Cl)cc4c(N5CCCC6(CN(C(=O)n7cncn7)C6)C5)nc(OC[C@@]56CCCN5C[C@H](F)C6)nc4c3F)ccc(F)c2s1` [Compound A136, (6-(7-(2-amino-7-fluorobenzo[d]thiazol-4-yl)-6-chloro-8-fluoro-2-(((2R,7aS)-2-fluorotetrahydro-1H-pyrrolizin-7a(5H)-yl)methoxy)quinazolin-4-yl)-2,6-diazaspiro[3.5]nonan-2-yl)(1H-1,2,4-triazol-1-yl)methanone], in assay [1], the “% G12S Modification at 24 hr.” value is recorded as “+++ (+++ indicates greater than 20% labelling)”. The figures for the 50% inhibitory concentration (IC50) in the assay with GP2D cells (GP2D cells (K-Ras G12D)) and in the assay with A549 cells (setting [3]) were 1000 to 10000 nM and 500 to 5000 nM, respectively. Moreover, the “ratio of IC50 against a G12D cell line” value in the assay with A549 cells is on record as “greater than 1”.

As for `CN1CCC[C@H]1COc1nc(N2CCOC3(CN(C(=O)n4cncn4)C3)C2)c2cc(Cl)c(-c3ccc(F)c4sc(N)c(C#N)c34)c(F)c2n1` [Compound A137, 4-(4-(2-(1H-1,2,4-triazole-1-carbonyl)-5-oxa-2,8-diazaspiro[3.5]nonan-8-yl)-6-chloro-8-fluoro-2-(((S)-1-methylpyrrolidin-2-yl)methoxy)quinazolin-7-yl)-2-amino-7-fluorobenzo[b]thiophene-3-carbonitrile], in assay [1], the “% G12S Modification at 24 hr.” value is “+++ (+++ indicates greater than 20% labelling)”. Besides, the IC50 in the assay with GP2D cells (GP2D cells (K-Ras G12D)) was 1000 to 10000 nM; in the assay on A549 cells (setting [2]), no more than 500 nM.

`Nc1nc2c(-c3c(Cl)cc4c(N5CCN(C(=O)n6cncn6)CC(F)(F)C5)nc(OC[C@@]56CCCN5C[C@H](F)C6)nc4c3F)ccc(F)c2s1` [Compound A141, (4-(7-(2-amino-7-fluorobenzo[d]thiazol-4-yl)-6-chloro-8-fluoro-2-(((2R,7aS)-2-fluorotetrahydro-1H-pyrrolizin-7a(5H)-yl)methoxy)quinazolin-4-yl)-6,6-difluoro-1,4-diazepan-1-yl)(1H-1,2,4-triazol-1-yl)methanone]: the “K-Ras12S engagement” value in assay [1] was “+++ (+++: indicates equal to or greater than 20% labelling)”. For the same compound, the “% G12S Modification at 24 hr.” value in assay [1] is on record as “+++ (+++ indicates greater than 20% labelling)”. The IC50 with GP2D cells (GP2D cells (K-Ras G12D)) was in the range of 1000 to 10000 nM; in the assay on A549 cells (setting [3]), 500 to 5000 nM.

Consider `Nc1nc2c(-c3c(Cl)cc4c(N5CCN(C(=O)n6cncn6)CC5)nc(OC[C@@]56CCCN5C[C@H](F)C6)nc4c3F)ccc(F)c2s1` [Compound A146, (4-(7-(2-amino-7-fluorobenzo[d]thiazol-4-yl)-6-chloro-8-fluoro-2-(((2R,7aS)-2-fluorotetrahydro-1H-pyrrolizin-7a(5H)-yl)methoxy)quinazolin-4-yl)piperazin-1-yl)(1H-1,2,4-triazol-1-yl)methanone], for which, in assay [1], the “% G12S Modification at 24 hr.” value is listed as “+++ (+++ indicates greater than 20% labelling)”. Also, the concentration for half-maximal inhibition (IC50) in the assay on GP2D cells (GP2D cells (K-Ras G12D)) is no more than 1000 nM; in the assay with A549 cells (setting [3]), 500 to 5000 nM.

Consider `Cc1ncn(C(=O)N2CC3(C2)CN(c2nc(OC[C@@]45CCCN4C[C@H](F)C5)nc4c(F)c(-c5ccc(F)c6sc(N)c(C#N)c56)c(Cl)cc24)CCO3)n1` [Compound A148, 2-amino-4-(6-chloro-8-fluoro-2-(((2R,7aS)-2-fluorotetrahydro-1H-pyrrolizin-7 a(5H)-yl)methoxy)-4-(2-(3-methyl-1H-1,2,4-triazole-1-carbonyl)-5-oxa-2,8-diazaspiro[3.5]nonan-8-yl)quinazolin-7-yl)-7-fluorobenzo[b]thiophene-3-carbonitrile], for which, in assay [1], the “% G12S Modification at 24 hr.” value was “+++ (+++ indicates greater than 20% labelling)”. Also, the IC50 was 1000 to 10000 nM in the assay on GP2D cells (GP2D cells (K-Ras G12D)) and no more than 500 nM in the assay on A549 cells (setting [2]).

`N#Cc1c(N)sc2c(F)ccc(-c3c(Cl)cc4c(N5CCC6C5CCCN6C(=O)n5cncn5)nc(OC[C@@]56CCCN5C[C@H](F)C6)nc4c3F)c12` (stereo partly drawn) [Compound A152, 4-(4-(4-(1H-1,2,4-triazole-1-carbonyl)octahydro-1H-pyrrolo[3,2-b]pyridin-1-yl)-6-chloro-8-fluoro-2-(((2R,7aS)-2-fluorotetrahydro-1H-pyrrolizin-7a(5H)-yl)methoxy)quinazolin-7-yl)-2-amino-7-fluorobenzo[b]thiophene-3-carbonitrile]: the “% G12S Modification at 24 hr.” value in assay [1] is listed as “+++ (+++ indicates greater than 20% labelling)”. The IC50 in the assay on GP2D cells (GP2D cells (K-Ras G12D)) was no more than 1000 nM; in the assay with A549 cells (setting [2]), no more than 500 nM. Also, in the assay with A549 cells, the “ratio of IC50 against a G12D cell line” value is reported as “greater than 1”.
